Measurements reported in publication PMC5991599, “Anti‐tumor efficacy of a novel CLK inhibitor via targeting RNA splicing and MYC‐dependent vulnerability” (EMBO Molecular Medicine, 2018).

Tests used:
240 cancer cell lines = test: Panel of growth inhibition assays (OncoPanel 240); assay type: cell-based; conditions: hematological and solid cancer cell lines; 72 h; read-out: IC50 values, anti-proliferative activity
Method: (§1) The KINOMEScan‐based kinase selectivity assay was performed at the DiscoverX Corporation (Fremont, CA, USA). The panel of growth inhibition assay and subsequent bioinformatics analysis (Fig EV1) were performed at Eurofins Inc. (St. Charles, MO, USA), using OncoPanel 240 or 60. Details of the procedures of cell proliferation assay, caspase‐3/7 activity assay, immunoblotting, and immunohistochemistry are described in Appendix Supplementary Methods.
(§2) Panel of growth inhibition assay and subsequence bioinformatics analysis (at […]
(§3) A growth inhibition assay panel and subsequent bioinformatics analysis were performed at Eurofins Inc. (MO, U.S.A.) by utilizing Oncopanel240 or 60.
(§4) According to the study reports from Eurofins Inc., cells were seeded into 384 well plates at a single cell density in standardized media. After 24 hours, the test compounds were added and the plate was incubated continuously for 72 hours. Cells were then fixed and stained to visualize nuclei. The number of nuclei was counted and normalized.
(§5) Cellular response parameters were calculated using nonlinear regression to a sigmoidal single-site dose response model and the IC50 value of each cell line was calculated.
(§6) Genomic features were binned into six distinct categories, each of which was considered to be a “biomarker-positive” grouping: Mutated (non-synonymous, coding, and non-coding mutations), Amplified, Deleted, Overexpressed, Mutated or amplified (gain-of-function), and Mutated or deleted (loss-of-function). Two orthogonal significance tests were performed on each genomic feature as follows.
(§7) Student’s t-test: For each genomic feature within each of the six above categories, IC50 cell count values for biomarker-positive and biomarker-negative groups were […]

786-O = test: Panel of growth inhibition assays (OncoPanel 240); assay type: cell-based; conditions: Homo sapiens, 786-0; 72 h; kidney cancer; read-out: IC50 (nmol/L) Oncopanel
Method: as §1, §2, §3, §4, §5, §6, §7

BV173 = test: Panel of growth inhibition assays (OncoPanel 240); assay type: cell-based; conditions: Homo sapiens, BV-173; 72 h; leukemia; read-out: IC50 (Oncopanel, cell count)
Method: as §1, §2, §3, §4, §5, §6, §7

CCRF-CEM = test: Panel of growth inhibition assays (OncoPanel 240); assay type: cell-based; conditions: Homo sapiens, 72 h, leukemia, read-out: IC50 (nmol/L) Cell count
Method: as §1, §2, §3, §4, §5, §6, §7

CMLT1 = test: Panel of growth inhibition assays (OncoPanel 240); assay type: cell-based; conditions: CML-T1; 72 h; leukemia; read-out: IC50 (Oncopanel, cell count)
Method: as §1, §2, §3, §4, §5, §6, §7

DAUDI = test: Panel of growth inhibition assays (OncoPanel 240); assay type: cell-based; conditions: Homo sapiens, 72 h, lymphoma, read-out: IC50 (Oncopanel, cell count)
Method: as §1, §2, §3, §4, §5, §6, §7

DB = test: Panel of growth inhibition assays (OncoPanel 240); assay type: cell-based; conditions: Homo sapiens, 72 h, lymphoma, read-out: IC50 (Oncopanel, cell count)
Method: as §1, §2, §3, §4, §5, §6, §7

DOHH2 = test: Panel of growth inhibition assays (OncoPanel 240); assay type: cell-based; conditions: Homo sapiens, DOHH-2; 72 h; lymphoma; read-out: IC50 (Oncopanel, cell count)
Method: as §1, §2, §3, §4, §5, §6, §7

EM2 = test: Panel of growth inhibition assays (OncoPanel 240); assay type: cell-based; conditions: Homo sapiens, EM-2; 72 h; leukemia; read-out: IC50 (Oncopanel, cell count)
Method: as §1, §2, §3, §4, §5, §6, §7

HEL9217 = test: Panel of growth inhibition assays (OncoPanel 240); assay type: cell-based; conditions: Homo sapiens, HEL 92.1.7; 72 h; leukemia; read-out: IC50 (Oncopanel, cell count)
Method: as §1, §2, §3, §4, §5, §6, §7

K562 = test: Panel of growth inhibition assays (OncoPanel 240); assay type: cell-based; conditions: Homo sapiens, 72 h, leukemia, read-out: IC50 (Oncopanel, cell count)
Method: as §1, §2, §3, §4, §5, §6, §7

L428 = test: Panel of growth inhibition assays (OncoPanel 240); assay type: cell-based; conditions: Homo sapiens, L-428; 72 h; lymphoma; read-out: IC50 (Oncopanel, cell count)
Method: as §1, §2, §3, §4, §5, §6, §7

MDA-MB-468 = test: Panel of growth inhibition assays (OncoPanel 240); assay type: cell-based; conditions: Homo sapiens, 72 h, breast cancer, read-out: IC50 (nmol/L) Oncopanel
Method: as §1, §2, §3, §4, §5, §6, §7

MEG01 = test: Panel of growth inhibition assays (OncoPanel 240); assay type: cell-based; conditions: Homo sapiens, MEG-01; 72 h; leukemia; read-out: IC50 (Oncopanel, cell count)
Method: as §1, §2, §3, §4, §5, §6, §7

MOLT16 = test: Panel of growth inhibition assays (OncoPanel 240); assay type: cell-based; conditions: Homo sapiens, MOLT-16; 72 h; leukemia; read-out: IC50 (Oncopanel, cell count)
Method: as §1, §2, §3, §4, §5, §6, §7

MV-4-11 = test: Panel of growth inhibition assays (OncoPanel 240); assay type: cell-based; conditions: Homo sapiens, MV4-11; 72 h; leukemia; read-out: IC50 (Oncopanel, cell count)
Method: as §1, §2, §3, §4, §5, §6, §7

NALM6 = test: Panel of growth inhibition assays (OncoPanel 240); assay type: cell-based; conditions: Homo sapiens, NALM-6; 72 h; leukemia; read-out: IC50 (Oncopanel, cell count)
Method: as §1, §2, §3, §4, §5, §6, §7

RAJI = test: Panel of growth inhibition assays (OncoPanel 240); assay type: cell-based; conditions: Homo sapiens, 72 h, lymphoma, read-out: IC50 (Oncopanel, cell count)
Method: as §1, §2, §3, §4, §5, §6, §7

RPMI8226 = test: Panel of growth inhibition assays (OncoPanel 240); assay type: cell-based; conditions: Homo sapiens, RPMI-8226; 72 h; myeloma; read-out: IC50 (Oncopanel, cell count)
Method: as §1, §2, §3, §4, §5, §6, §7

ST486 = test: Panel of growth inhibition assays (OncoPanel 240); assay type: cell-based; conditions: Homo sapiens, 72 h, lymphoma, read-out: IC50 (Oncopanel, cell count)
Method: as §1, §2, §3, §4, §5, §6, §7

THP1 = test: Panel of growth inhibition assays (OncoPanel 240); assay type: cell-based; conditions: Homo sapiens, THP-1; 72 h; leukemia; read-out: IC50 (Oncopanel, cell count)
Method: as §1, §2, §3, §4, §5, §6, §7

U266B1 = test: Panel of growth inhibition assays (OncoPanel 240); assay type: cell-based; conditions: 72 h; myeloma; read-out: IC50 (Oncopanel, cell count)
Method: as §1, §2, §3, §4, §5, §6, §7

[1] = system: MYC-driven breast tumor allograft; test: Efficacy study in MMTV-MYC allograft model; assay type: in vivo, Balb/c nude mice; conditions: 50 mg/kg, twice daily on 2 days per week
Method: The transgenic MMTV‐MYC model was generated using the MMTV promoter as previously described (Muller et al, 1988) and was obtained from the Mouse Models of Human Cancer Consortium. The MYC‐driven breast tumor allograft model was established from a primary tumor of this model (females). Tumor cells were isolated using a cell strainer in the presence of RPMI. Viable cell count was determined, and 0.1 × 10^6 cells per mouse were subcutaneously injected in Balb/c nude animals (12‐week‐old females, Taconic Biosciences, Hudson, NY, USA) for subsequent propagation in the presence of Matrigel (BD, Franklin Lakes, NJ, USA) After two rounds of in vivo propagation, the tumor material was cryopreserved in liquid nitrogen. A small piece of the tumor was subcutaneously inoculated into Balb/c nude mice (7‐ to 8‐week‐old females), and the tumors were used for efficacy assessment.
Tumor volume=long diameter×short diameter×short diameter×(1/2)
Mice having a tumor of size approximately 200 mm^3 were used in efficacy or in vivo pharmacodynamics studies. T‐025 was dissolved in 0.5% methylcellulose solution. For the efficacy study, after randomized grouping, mice were treated with T‐025 twice daily once or twice weekly for 2 or 3 weeks. The mouse tumor volume and body weight were measured every 2–3 days.

other kinases = test: KINOMEScan-based kinase selectivity assay, kinases other than CLK/DYRK1; assay type: binding
Method: as §1

CNc1nc(NCc2ncccn2)c2c(-c3ccc4ncccc4c3)c[nH]c2n1 [T-025, N ^2‐methyl‐N ^4‐[pyrimidin‐2‐ylmethyl]‐5‐[quinolin‐6‐yl]‐7H‐pyrrolo[2,3‐d]pyrimidine‐2,4‐diamine]
IC50 (240 cancer cell lines): 30 to 300 nM | IC50 (786-O): 239 nmol/L | IC50 (BV173): 21.8 nM | IC50 (CCRF-CEM): 45.9 nmol/L | IC50 (CMLT1): 69.7 nM | IC50 (DAUDI): 52.5 nM | IC50 (DB): 43.3 nM | IC50 (DOHH2): 39.5 nM | IC50 (EM2): 104 nM | IC50 (HEL9217): 38.3 nM | IC50 (K562): 129 nM | IC50 (L428): 116 nM | IC50 (MDA-MB-468): 47.1 nmol/L | IC50 (MEG01): 305 nM | IC50 (MOLT16): 20.6 nM | IC50 (MV-4-11): 30.1 nM | IC50 (NALM6): 52.6 nM | IC50 (RAJI): 84.7 nM | IC50 (RPMI8226): 99.3 nM | IC50 (ST486): 57.1 nM | IC50 (THP1): 228 nM | IC50 (U266B1): 35.1 nM | anti-tumor efficacy, tumor growth [1]: strongly suppressed growth of the allograft tumors | body weight loss [1]: without inducing body weight losses | selectivity for CLK/DYRK1 over other kinases (other kinases): > 300 fold | Kd (other kinases; no other kinase had Kd < 30, read-out: Kd of other kinases outside of CLK and DYRK1 family): ≥ 30 nM
